Reference: paper doi:10.1101/2023.11.02.565309v1 (biorxiv, 2023)

Target: WT GluA2(Q)i (Rattus norvegicus, UniProt P19491)
Format: cell-based
Details: positive allosteric modulator at 100 µM

Sequence of WT GluA2(Q)i (P19491 22-883 isoform P19491-2): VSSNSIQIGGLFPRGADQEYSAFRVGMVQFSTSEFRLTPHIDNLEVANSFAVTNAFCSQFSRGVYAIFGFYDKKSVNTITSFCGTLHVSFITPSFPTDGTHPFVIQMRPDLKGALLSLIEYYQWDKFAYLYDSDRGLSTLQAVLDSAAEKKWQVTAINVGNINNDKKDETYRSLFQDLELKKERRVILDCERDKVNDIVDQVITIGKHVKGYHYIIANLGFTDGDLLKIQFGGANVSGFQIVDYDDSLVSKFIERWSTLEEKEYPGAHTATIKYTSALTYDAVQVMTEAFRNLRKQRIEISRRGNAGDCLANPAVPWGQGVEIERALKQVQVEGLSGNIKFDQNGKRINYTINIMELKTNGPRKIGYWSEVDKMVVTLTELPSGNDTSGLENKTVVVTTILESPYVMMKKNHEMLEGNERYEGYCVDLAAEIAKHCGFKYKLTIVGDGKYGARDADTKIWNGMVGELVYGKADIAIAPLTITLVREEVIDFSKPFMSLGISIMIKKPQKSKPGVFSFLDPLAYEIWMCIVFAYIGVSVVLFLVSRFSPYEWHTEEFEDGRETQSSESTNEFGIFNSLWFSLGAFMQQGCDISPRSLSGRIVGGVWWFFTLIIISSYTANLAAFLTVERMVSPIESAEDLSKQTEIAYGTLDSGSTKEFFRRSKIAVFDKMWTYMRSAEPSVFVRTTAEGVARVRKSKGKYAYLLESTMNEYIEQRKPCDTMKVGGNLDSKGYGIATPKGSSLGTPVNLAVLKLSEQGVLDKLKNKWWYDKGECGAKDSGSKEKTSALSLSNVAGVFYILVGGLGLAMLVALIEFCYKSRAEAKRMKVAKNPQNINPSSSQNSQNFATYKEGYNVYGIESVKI

`NS(=O)(=O)c1cc2c(cc1Cl)NC(C1CC3C=CC1C3)NS2(=O)=O` (stereo not shown) [cyclothiazide] was tested, and the fold potentiation was ~ 3 fold.
